Results: PubChem BioAssay AID232 (DTP/NCI, 2004)
Values joined by “and” are separate entries in the source; they are usually repeats but may differ in a detail not shown here. Equal entries are not always repeated. Toxic doses and inconclusive results are not listed.

Test system: Gardner 6C3HED lymphosarcoma ip, C3AKF1 mice, survival T/C
Assay: NCI In Vivo Anticancer Drug Screen. Data for tumor model Lymphosarcoma Gardner 6C3HED (intraperitoneal) in C3AKF1 (CHKRF1) mice
Conditions: endpoint: survival time, mean or median, higher = longer survival
Description: The antitumor activity of compounds was measured in mice bearing transplantable tumors. Survival or tumor size were measured and the results are expressed as the measurement made in the treated group (T) divided by the measurement made in the vehicle treated control group (C). The tumor model used in this assay is Lymphosarcoma Gardner 6C3HED (intraperitoneal) in C3AKF1 (CHKRF1) mice

[1] = dose: 4.0 mg/kg/injection, schedule: Q01DX010 (ip), vehicle: other
[2] = dose: 25.0 mg/kg/injection, schedule: Q01DX010 (ip), vehicle: saline
[3] = dose: 50.0 mg/kg/injection, schedule: Q01DX010 (ip), vehicle: saline
[4] = dose: 10.0 mg/kg/injection, schedule: Q01DX010 (ip), vehicle: saline
[5] = dose: 20.0 mg/kg/injection, schedule: Q01DX010 (ip), vehicle: saline
[6] = dose: 40.0 mg/kg/injection, schedule: Q01DX010 (ip), vehicle: saline
[7] = dose: 2.0 mg/kg/injection, schedule: Q01DX010 (ip), vehicle: saline
[8] = dose: 62.5 mg/kg/injection, schedule: Q01DX010 (ip), vehicle: saline
[9] = dose: 150.0 mg/kg/injection, schedule: Q01DX010 (ip), vehicle: saline
[10] = dose: 12.5 mg/kg/injection, schedule: Q01DX010 (sc), vehicle: steriod suspending solution
[11] = dose: 25.0 mg/kg/injection, schedule: Q01DX010 (sc), vehicle: steriod suspending solution
[12] = dose: 50.0 mg/kg/injection, schedule: Q01DX010 (sc), vehicle: steriod suspending solution
[13] = dose: 0.5 mg/kg/injection, schedule: Q01DX010 (ip), vehicle: saline
[14] = dose: 60.0 mg/kg/injection, schedule: Q01DX010 (ip), vehicle: saline
[15] = dose: 6.0 mg/kg/injection, schedule: Q01DX010 (ip), vehicle: saline
[16] = dose: 12.0 mg/kg/injection, schedule: Q01DX010 (ip), vehicle: saline
[17] = dose: 8.0 mg/kg/injection, schedule: Q01DX010 (ip), vehicle: saline
[18] = dose: 16.0 mg/kg/injection, schedule: Q01DX010 (ip), vehicle: saline
[19] = dose: 0.13 mg/kg/injection, schedule: Q01DX010 (ip), vehicle: saline
[20] = dose: 32.0 mg/kg/injection, schedule: Q01DX010 (ip), vehicle: saline
[21] = dose: 64.0 mg/kg/injection, schedule: Q01DX010 (ip), vehicle: saline

O=C(Nc1ccc(C2=NCCCN2)cc1)c1ccc(C(=O)Nc2ccc(C3=NCCCN3)cc2)cc1
T/C (dose: 1.0 mg/kg/injection, schedule: Q01DX010 (ip), vehicle: other): 227 % of control and 241 % of control | T/C (dose: 2.0 mg/kg/injection, schedule: Q01DX010 (ip), vehicle: other): 300 % of control | T/C [1]: 86 % of control

O=C1C(NC(=O)C2CCCCC2)=C(N2CC2)C(=O)C(NC(=O)C2CCCCC2)=C1N1CC1
T/C [2]: 92 % of control | T/C [3]: 92 % of control

Cn1c(N)nc2nc[nH]c2c1=S
T/C [4]: 96 % of control | T/C [5]: 96 % of control | T/C [6]: 107 % of control | T/C (dose: 80.0 mg/kg/injection, schedule: Q01DX010 (ip), vehicle: saline): 107 % of control

CS(=O)(=O)OCCCCOS(C)(=O)=O
T/C (dose: 1.56 mg/kg/injection, schedule: Q01DX010 (ip), vehicle: saline): 100 % of control | T/C (dose: 3.13 mg/kg/injection, schedule: Q01DX010 (ip), vehicle: saline): 100 % of control and 104 % of control

C=CC(CN1CC1)OC(C)=O (configuration not stated)
T/C [7]: 92 % of control

CCOC(=O)NP(=O)(N1CC1(C)C)N1CC1(C)C (configuration not stated)
T/C (dose: 31.3 mg/kg/injection, schedule: Q01DX010 (ip), vehicle: saline): 103 % of control | T/C [8]: 111 % of control

O[C@H](CN1CC1)[C@@H](O)CN1CC1
T/C (dose: 62.5 micrograms/kg/injection, schedule: Q01DX010 (ip), vehicle: saline): 96 % of control | T/C (dose: 125.0 micrograms/kg/injection, schedule: Q01DX010 (ip), vehicle: saline): 92 % of control | T/C (dose: 250.0 micrograms/kg/injection, schedule: Q01DX010 (ip), vehicle: saline): 155 % of control | T/C (dose: 500.0 micrograms/kg/injection, schedule: Q01DX010 (ip), vehicle: saline): 151 % of control

C[C@H](N)C(=O)N[C@@H]1[C@H]2C(=C(O)C[C@@H](O)[C@@H]2O)C(=O)O[C@@H]1C
T/C [9]: 110 % of control | T/C (dose: 300.0 mg/kg/injection, schedule: Q01DX010 (ip), vehicle: saline): 110 % of control and 115 % of control | T/C (dose: 600.0 mg/kg/injection, schedule: Q01DX010 (ip), vehicle: saline): 120 % of control | T/C (dose: 1200.0 mg/kg/injection, schedule: Q01DX010 (ip), vehicle: saline): 115 % of control and 120 % of control

CC/C(=C(/CC)c1ccc(O)cc1)c1ccc(O)cc1
T/C [10]: 104 % of control and 105 % of control | T/C [11]: 100 % of control and 105 % of control | T/C [12]: 95 % of control and 100 % of control | T/C (dose: 100.0 mg/kg/injection, schedule: Q01DX010 (sc), vehicle: steriod suspending solution): 95 % of control and 100 % of control

NC(Cc1c[nH]c2ccc(N(CCCl)CCCl)cc12)C(=O)O (configuration not stated)
T/C [13]: 159 % of control | T/C (dose: 1.0 mg/kg/injection, schedule: Q01DX010 (ip), vehicle: saline): 159 % of control and 181 % of control | T/C [7]: 195 % of control and 231 % of control

CN(N=O)C(=O)NC(C=O)C(O)C(O)C(O)CO (configuration not stated)
T/C [6]: 300 % of control | T/C [14]: 300 % of control | T/C (dose: 135.0 mg/kg/injection, schedule: Q01DX010 (ip), vehicle: saline): 95 % of control and 100 % of control

N=C(N)c1ccc(Nc2ccc(C(=N)N)cc2)cc1
T/C (dose: 3.0 mg/kg/injection, schedule: Q01DX010 (ip), vehicle: saline): 103 % of control | T/C [15]: 96 % of control | T/C [16]: 96 % of control

O=c1[nH]cc(F)c(=O)[nH]1
T/C [4]: 158 % of control | T/C [5]: 295 % of control | T/C [6]: 87 % of control

O=C(Nc1ccc(C2=NCCN2)cc1)c1ccc(C(=O)Nc2ccc(C3=NCCN3)cc2)cc1
T/C [1]: 179 % of control and 186 % of control | T/C (dose: 8.0 mg/kg/injection, schedule: Q01DX010 (ip), vehicle: other): 277 % of control and 300 % of control | T/C (dose: 16.0 mg/kg/injection, schedule: Q01DX010 (ip), vehicle: other): 229 % of control and 300 % of control | T/C (dose: 32.0 mg/kg/injection, schedule: Q01DX010 (ip), vehicle: other): 175 % of control and 200 % of control | T/C (dose: 64.0 mg/kg/injection, schedule: Q01DX010 (ip), vehicle: other): 166 % of control and 200 % of control

CC(=O)N(C)C
T/C [8]: 86 % of control and 90 % of control | T/C (dose: 125.0 mg/kg/injection, schedule: Q01DX010 (ip), vehicle: saline): 90 % of control and 95 % of control | T/C (dose: 250.0 mg/kg/injection, schedule: Q01DX010 (ip), vehicle: saline): 95 % of control and 100 % of control | T/C (dose: 500.0 mg/kg/injection, schedule: Q01DX010 (ip), vehicle: saline): 100 % of control

N=[N+]=CC(=O)OCC(N)C(=O)O (configuration not stated)
T/C (dose: 6.25 mg/kg/injection, schedule: Q01DX010 (ip), vehicle: saline): 150 % of control | T/C [2]: 95 % of control

O=C(Nc1ccc(C2=NCCN2)cc1)c1ccc(C(=O)Nc2ccc(C3=NCCN3)cc2)c([N+](=O)[O-])c1
T/C [15]: 218 % of control and 272 % of control | T/C [17]: 300 % of control | T/C [16]: 268 % of control and 300 % of control | T/C (dose: 18.0 mg/kg/injection, schedule: Q01DX010 (ip), vehicle: saline): 163 % of control and 259 % of control

COS(C)(=O)=O
T/C (dose: 12.5 mg/kg/injection, schedule: Q01DX010 (ip), vehicle: saline): 111 % of control | T/C [3]: 300 % of control | T/C (dose: 100.0 mg/kg/injection, schedule: Q01DX010 (ip), vehicle: saline): 176 % of control

S=P(N1CCOCC1)(N1CC1)N1CC1
T/C (dose: 2.5 mg/kg/injection, schedule: Q01DX010 (ip), vehicle: saline): 91 % of control and 100 % of control (2×) | T/C (dose: 5.0 mg/kg/injection, schedule: Q01DX010 (ip), vehicle: saline): 91 % of control and 92 % of control and 104 % of control | T/C [4]: 89 % of control and 91 % of control and 104 % of control | T/C [5]: 108 % of control and 121 % of control

NC(Cc1ccc(N(CCCl)CCCl)cc1)C(=O)O (configuration not stated)
T/C [17]: 160 % of control | T/C [4]: 103 % of control | T/C [18]: 100 % of control and 105 % of control

CC[C@]1(O)C[C@H]2CN(CCc3c([nH]c4ccccc34)[C@@](C(=O)OC)(c3cc4c(cc3OC)N(C=O)[C@H]3[C@@](O)(C(=O)OC)[C@H](OC(C)=O)[C@]5(CC)C=CCN6CC[C@]43[C@@H]65)C2)C1
T/C (dose: 0.12 mg/kg/injection, schedule: Q01DX010 (ip), vehicle: saline): 250 % of control | T/C [19]: 285 % of control and 300 % of control

N#CCSc1ncnc2nc[nH]c12
T/C (dose: 15.0 mg/kg/injection, schedule: Q01DX010 (ip), vehicle: saline): 100 % of control and 111 % of control | T/C (dose: 30.0 mg/kg/injection, schedule: Q01DX010 (ip), vehicle: saline): 100 % of control | T/C [14]: 95 % of control and 114 % of control | T/C (dose: 120.0 mg/kg/injection, schedule: Q01DX010 (ip), vehicle: saline): 92 % of control and 95 % of control

CC(=O)O[C@]1(C(C)=O)CC[C@H]2[C@@H]3C[C@H](C)C4=CC(=O)C=C[C@]4(C)[C@@]3(F)[C@@H](O)C[C@@]21C
T/C [10]: 111 % of control | T/C [11]: 92 % of control | T/C [12]: 88 % of control

Nc1nc(SCc2ccccc2)c2[nH]cnc2n1
T/C [17]: 95 % of control and 100 % of control | T/C [18]: 95 % of control and 104 % of control | T/C [20]: 90 % of control and 91 % of control and 104 % of control | T/C [21]: 87 % of control and 100 % of control (2×)

O=C(Nc1ccc(C2=NCCN2)cc1)c1cccc(C(=O)Nc2ccc(C3=NCCN3)cc2)c1
T/C [17]: 183 % of control and 200 % of control | T/C [18]: 272 % of control and 300 % of control | T/C [20]: 279 % of control and 300 % of control | T/C [21]: 279 % of control and 290 % of control

CN(C)c1nc(N(C)C)nc(N(C)C)n1
T/C (dose: 18.8 mg/kg/injection, schedule: Q01DX010 (ip), vehicle: saline): 104 % of control | T/C (dose: 37.5 mg/kg/injection, schedule: Q01DX010 (ip), vehicle: saline): 104 % of control | T/C (dose: 75.0 mg/kg/injection, schedule: Q01DX010 (ip), vehicle: saline): 95 % of control and 100 % of control | T/C [9]: 100 % of control and 104 % of control

CSCS(=O)C[C@H](CO)NC(=O)/C=C/c1c(C)[nH]c(=O)[nH]c1=O (some centres not stated)
T/C [19]: 87 % of control | T/C (dose: 0.25 mg/kg/injection, schedule: Q01DX010 (ip), vehicle: saline): 90 % of control | T/C [13]: 90 % of control and 91 % of control
